Values joined by “and” are separate entries in the source; they are usually repeats but may differ in a detail not shown here. Identical values can stand only once.
How the values were obtained:
KvLQT1/minK = KvLQT1/minK (Homo sapiens, UniProt P51787); test: SAFETYScan Ion Channel, Opener; assay type: cell-based
From the text: (§1) Supplement jm1c02175_si_002.xlsx, sheet "SAFETYScan" | column: RC50 (uM); Max Response

nAChR(a4/b2) = nAChR(a4/b2) (Homo sapiens, UniProt P17787+P43681); test: SAFETYScan Ion Channel, Opener; assay type: cell-based
From the text: as §1

GABAA = GABAA (Homo sapiens, UniProt P14867+P18507+P47870); test: SAFETYScan Ion Channel, Opener; assay type: cell-based; settings: read-out: Max Response
From the text: as §1

HTR3A = target: T1, HTR3A (Homo sapiens, UniProt P46098); test: SAFETYScan Ion Channel, Opener; assay type: cell-based
T1 sequence (P46098 24-478): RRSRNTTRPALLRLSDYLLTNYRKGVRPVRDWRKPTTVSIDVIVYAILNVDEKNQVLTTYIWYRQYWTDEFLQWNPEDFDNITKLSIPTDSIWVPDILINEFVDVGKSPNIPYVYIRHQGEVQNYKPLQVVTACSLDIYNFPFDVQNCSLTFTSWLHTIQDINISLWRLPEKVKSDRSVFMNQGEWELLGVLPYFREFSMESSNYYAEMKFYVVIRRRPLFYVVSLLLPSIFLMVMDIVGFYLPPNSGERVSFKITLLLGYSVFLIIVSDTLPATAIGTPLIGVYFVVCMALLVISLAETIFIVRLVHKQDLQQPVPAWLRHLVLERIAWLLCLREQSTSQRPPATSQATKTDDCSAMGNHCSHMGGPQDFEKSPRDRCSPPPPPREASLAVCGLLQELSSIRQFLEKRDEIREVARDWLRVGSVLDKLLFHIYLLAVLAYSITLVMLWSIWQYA
From the text: as §1

NMDAR (1A/2B) = NMDAR (1A/2B) (Homo sapiens, UniProt Q05586+Q13224); test: SAFETYScan Ion Channel, Opener; assay type: cell-based
From the text: as §1

PDE3A = PDE3A (Homo sapiens, UniProt Q14432); test: SAFETYScan Non-Kinase Enzymes Enzymatic, Inhibitor; assay type: biochemical
From the text: as §1

MAOA = MAOA (Homo sapiens, UniProt P21397); test: SAFETYScan Non-Kinase Enzymes Enzymatic, Inhibitor; assay type: biochemical
From the text: as §1

AChE = AChE (Homo sapiens, UniProt P22303); test: SAFETYScan Non-Kinase Enzymes Enzymatic, Inhibitor; assay type: biochemical
From the text: as §1

PDE4D2 = PDE4D2 (Homo sapiens, UniProt Q08499); test: SAFETYScan Non-Kinase Enzymes Enzymatic, Inhibitor; assay type: biochemical
From the text: as §1

COX2 = COX2 (Homo sapiens, UniProt P35354); test: SAFETYScan Non-Kinase Enzymes Enzymatic, Inhibitor; assay type: biochemical
From the text: as §1

COX1 = COX1 (Homo sapiens, UniProt P23219); test: SAFETYScan Non-Kinase Enzymes Enzymatic, Inhibitor; assay type: biochemical
From the text: as §1

human BCL6 BTB domain = human BCL6 BTB domain (Homo sapiens, UniProt P41182)
Method: Assays were performed in a 384-well black Proxiplate (Perkin Elmer) containing 1 nM Trx-6xHis-BCL6 (in
anti-6xHis-Terbium cryptate (CisBio Bioassays, France), in assay buffer (25 mM Hepes pH8, 100 mM NaCl,
0.05% Tween20, 0.5 mM TCEP, 0.05% bovine serum albumin). Test compounds in DMSO or DMSO alone
were added to the wells using an ECHO550 acoustic dispenser (Labcyte Inc) to give the appropriate test
concentration in 0.7% v/v DMSO final. After 2 hours incubation at room temperature the plate was read
The % inhibition at each concentration was calculated by normalising FRET ratio to the
appropriate high (DMSO with all reagents) and low (DMSO without BCL6) controls. IC50 values were
determined using GraphPad Prism 6.0 or Dotmatics (Bishops Stortford, UK) software by fitting the
normalised data to a sigmoidal four-parameter logistic fit equation.

HT = test: Cell proliferation assay (14 days), HT
Method: Cells were seeded in 96-well culture plates at a density of 2500 cells/well in RPMI-1640 medium (Sigma-
Aldrich) supplemented with 10% FBS (Gibco). Compounds were initially dispensed into 96-well U-bottom
plates using an Echo 550 acoustic dispenser (Labcyte Inc.), then diluted in RPMI-1640 medium and
transferred onto the cells. Cells were treated with 8 compound concentrations in duplicate, ranging from
with compound for 14 days, with medium changes at days 3, 7 and 10 carried out as follows: fresh 96-well
cell culture plates were prepared containing 100 µl medium plus compound at the assay concentrations
(white plates were used on day 10 to optimise luminescence measurement). Assay plates containing cells
were vortexed to mix and cell density in one control well was counted using a Coulter Z2 cell counter
(Beckman Coulter). The volume of medium containing 2500 cells in the control well was calculated and this volume of cells was transferred from every well of the assay plates to the corresponding well of the fresh plates containing compound. After 14 days, CellTiter Glo reagent (Promega) was added to the medium in each well of the assay plate at a ratio of 1:2, mixed on a plate shaker, then incubated at room temperature for 10 minutes. Luminescence was measured using an Envision plate reader (Perkin Elmer) and the relative luminescence at each compound concentration, compared to DMSO alone, was calculated. GI50 were determined using a 4-parameter curve fit in Dotmatics (Bishops Stortford, UK).

[1] = Microsomal clearance assay (MLM); assay type: in vitro ADME; settings: female, CD1, pH 7.4; mouse liver microsomes, 1 μM compound
Procedure, shortened: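 Compound (1 µM) was incubated at 37 °C with female CD1 mouse, female Sprague–Dawley rat or mixed-gender human liver microsomes (0.5 mg/mL protein) in 10 mmol/L phosphate, pH 7.4, with 3 mmol/L MgCl2. After 10 min preincubation, 1 mmol/L NADPH started the reaction. Samples taken up to 30 min were methanol-quenched and analysed by LC-MS.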

AR = target: T2, AR (Homo sapiens, UniProt P10275); test: SAFETYScan NHR Nuclear Translocation, Agonist; assay type: cell-based
T2 sequence (P10275 1-920): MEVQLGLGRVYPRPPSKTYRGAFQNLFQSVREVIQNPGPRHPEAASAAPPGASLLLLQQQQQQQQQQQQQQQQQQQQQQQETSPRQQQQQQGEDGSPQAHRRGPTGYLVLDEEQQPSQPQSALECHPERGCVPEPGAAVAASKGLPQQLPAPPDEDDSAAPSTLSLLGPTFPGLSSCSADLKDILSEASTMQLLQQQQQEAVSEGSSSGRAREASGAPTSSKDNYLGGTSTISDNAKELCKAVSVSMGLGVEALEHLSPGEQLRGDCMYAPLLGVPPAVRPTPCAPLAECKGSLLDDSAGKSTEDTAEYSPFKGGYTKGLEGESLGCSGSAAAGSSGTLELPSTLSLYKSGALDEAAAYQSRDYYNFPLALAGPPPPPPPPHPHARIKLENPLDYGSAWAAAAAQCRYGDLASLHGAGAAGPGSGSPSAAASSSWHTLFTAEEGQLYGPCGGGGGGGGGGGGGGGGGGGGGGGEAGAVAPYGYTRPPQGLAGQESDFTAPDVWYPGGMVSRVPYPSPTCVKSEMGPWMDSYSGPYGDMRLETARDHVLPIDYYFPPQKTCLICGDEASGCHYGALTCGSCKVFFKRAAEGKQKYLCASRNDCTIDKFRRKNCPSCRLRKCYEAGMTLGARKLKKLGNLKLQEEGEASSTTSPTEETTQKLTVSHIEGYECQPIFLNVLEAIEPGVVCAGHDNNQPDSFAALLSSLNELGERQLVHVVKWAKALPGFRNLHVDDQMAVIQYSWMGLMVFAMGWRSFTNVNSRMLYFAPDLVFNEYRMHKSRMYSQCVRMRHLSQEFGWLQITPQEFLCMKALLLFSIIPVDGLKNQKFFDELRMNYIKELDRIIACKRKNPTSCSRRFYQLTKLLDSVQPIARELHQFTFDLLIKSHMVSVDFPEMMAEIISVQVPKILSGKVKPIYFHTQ
From the text: as §1

NMDAR (1A/2B), sequence (Q13224 27-1484, other chains not shown): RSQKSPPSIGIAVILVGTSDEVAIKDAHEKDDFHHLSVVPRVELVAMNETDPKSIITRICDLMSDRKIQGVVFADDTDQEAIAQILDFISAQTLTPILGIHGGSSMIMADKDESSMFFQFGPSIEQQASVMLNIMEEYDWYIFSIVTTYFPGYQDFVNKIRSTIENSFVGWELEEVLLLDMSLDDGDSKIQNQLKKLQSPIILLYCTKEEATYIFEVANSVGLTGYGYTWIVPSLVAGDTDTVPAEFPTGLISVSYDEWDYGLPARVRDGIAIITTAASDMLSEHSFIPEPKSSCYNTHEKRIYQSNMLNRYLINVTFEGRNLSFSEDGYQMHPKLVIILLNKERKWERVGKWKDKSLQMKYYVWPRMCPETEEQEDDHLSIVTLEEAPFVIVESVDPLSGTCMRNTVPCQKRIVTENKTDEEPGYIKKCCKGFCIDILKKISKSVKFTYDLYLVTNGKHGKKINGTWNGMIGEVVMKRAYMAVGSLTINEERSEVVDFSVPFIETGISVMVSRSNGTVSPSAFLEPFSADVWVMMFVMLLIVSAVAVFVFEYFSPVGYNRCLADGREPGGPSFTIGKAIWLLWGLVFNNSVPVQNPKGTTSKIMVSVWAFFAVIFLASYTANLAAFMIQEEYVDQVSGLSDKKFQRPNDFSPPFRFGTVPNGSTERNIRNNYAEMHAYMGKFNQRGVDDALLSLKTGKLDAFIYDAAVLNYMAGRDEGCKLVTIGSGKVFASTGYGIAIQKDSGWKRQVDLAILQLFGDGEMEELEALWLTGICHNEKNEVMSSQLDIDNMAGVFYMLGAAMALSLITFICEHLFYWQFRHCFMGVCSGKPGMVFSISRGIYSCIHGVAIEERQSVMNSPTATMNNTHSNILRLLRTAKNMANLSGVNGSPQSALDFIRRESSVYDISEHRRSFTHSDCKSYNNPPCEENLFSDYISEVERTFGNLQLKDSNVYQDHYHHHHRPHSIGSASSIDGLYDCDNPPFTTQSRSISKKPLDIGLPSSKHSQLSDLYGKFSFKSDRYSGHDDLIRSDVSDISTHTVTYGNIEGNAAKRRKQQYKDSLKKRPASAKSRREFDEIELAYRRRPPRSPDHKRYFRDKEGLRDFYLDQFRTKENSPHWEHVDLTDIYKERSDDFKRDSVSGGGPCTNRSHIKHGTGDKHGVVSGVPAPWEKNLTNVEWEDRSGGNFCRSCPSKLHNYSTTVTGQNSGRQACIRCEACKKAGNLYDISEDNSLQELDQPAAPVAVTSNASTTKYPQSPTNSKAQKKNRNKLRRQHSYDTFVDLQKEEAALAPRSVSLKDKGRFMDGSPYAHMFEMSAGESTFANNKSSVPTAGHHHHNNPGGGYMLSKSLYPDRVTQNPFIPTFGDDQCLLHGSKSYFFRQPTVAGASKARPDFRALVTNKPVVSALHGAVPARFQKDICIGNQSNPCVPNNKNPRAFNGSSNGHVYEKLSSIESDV
PDE3A, sequence (Q14432 whole entry): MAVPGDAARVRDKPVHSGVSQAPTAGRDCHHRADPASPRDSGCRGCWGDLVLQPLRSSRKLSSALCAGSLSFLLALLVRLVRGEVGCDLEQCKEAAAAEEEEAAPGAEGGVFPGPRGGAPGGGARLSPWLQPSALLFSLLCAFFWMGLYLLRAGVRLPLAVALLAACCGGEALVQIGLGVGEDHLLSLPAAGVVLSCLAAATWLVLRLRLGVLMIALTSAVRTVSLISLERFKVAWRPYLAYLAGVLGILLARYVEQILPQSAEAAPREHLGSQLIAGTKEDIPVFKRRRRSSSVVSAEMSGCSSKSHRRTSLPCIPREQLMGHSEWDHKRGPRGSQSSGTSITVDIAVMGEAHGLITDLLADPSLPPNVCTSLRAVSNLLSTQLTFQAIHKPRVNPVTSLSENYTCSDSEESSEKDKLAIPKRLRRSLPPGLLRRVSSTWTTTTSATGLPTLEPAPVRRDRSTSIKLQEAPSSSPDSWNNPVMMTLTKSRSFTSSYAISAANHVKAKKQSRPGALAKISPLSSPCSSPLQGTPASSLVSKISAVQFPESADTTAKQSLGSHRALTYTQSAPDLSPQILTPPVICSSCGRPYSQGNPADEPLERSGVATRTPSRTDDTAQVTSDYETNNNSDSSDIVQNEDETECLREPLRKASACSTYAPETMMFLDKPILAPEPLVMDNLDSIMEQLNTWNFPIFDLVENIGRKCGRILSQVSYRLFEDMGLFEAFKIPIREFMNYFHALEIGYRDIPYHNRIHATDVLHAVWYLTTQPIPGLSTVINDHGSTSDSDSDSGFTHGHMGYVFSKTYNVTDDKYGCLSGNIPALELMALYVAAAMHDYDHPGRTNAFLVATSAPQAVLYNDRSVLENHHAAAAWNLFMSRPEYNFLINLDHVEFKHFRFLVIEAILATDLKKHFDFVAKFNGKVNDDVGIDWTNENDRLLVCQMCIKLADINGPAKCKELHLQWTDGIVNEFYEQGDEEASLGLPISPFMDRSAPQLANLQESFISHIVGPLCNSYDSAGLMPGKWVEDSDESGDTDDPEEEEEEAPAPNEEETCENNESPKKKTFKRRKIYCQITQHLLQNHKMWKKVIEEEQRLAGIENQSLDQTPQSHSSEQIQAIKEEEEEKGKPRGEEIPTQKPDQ
COX2, sequence (P35354 18-604): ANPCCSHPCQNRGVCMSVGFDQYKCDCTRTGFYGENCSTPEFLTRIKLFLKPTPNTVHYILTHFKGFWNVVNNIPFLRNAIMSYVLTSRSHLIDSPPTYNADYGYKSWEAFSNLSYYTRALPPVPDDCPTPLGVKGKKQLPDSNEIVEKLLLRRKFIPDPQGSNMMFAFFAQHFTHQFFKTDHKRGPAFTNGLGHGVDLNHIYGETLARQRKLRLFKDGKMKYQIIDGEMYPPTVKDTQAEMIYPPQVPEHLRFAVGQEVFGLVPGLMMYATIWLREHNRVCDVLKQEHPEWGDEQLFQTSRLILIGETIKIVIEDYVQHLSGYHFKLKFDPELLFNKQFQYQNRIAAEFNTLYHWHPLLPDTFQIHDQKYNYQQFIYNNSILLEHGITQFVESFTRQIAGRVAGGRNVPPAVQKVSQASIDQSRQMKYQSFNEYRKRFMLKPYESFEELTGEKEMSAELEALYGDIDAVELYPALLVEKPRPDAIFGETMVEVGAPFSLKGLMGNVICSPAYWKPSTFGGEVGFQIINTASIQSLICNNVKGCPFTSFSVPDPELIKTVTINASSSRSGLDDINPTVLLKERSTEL
KvLQT1/minK, sequence (P51787 whole entry): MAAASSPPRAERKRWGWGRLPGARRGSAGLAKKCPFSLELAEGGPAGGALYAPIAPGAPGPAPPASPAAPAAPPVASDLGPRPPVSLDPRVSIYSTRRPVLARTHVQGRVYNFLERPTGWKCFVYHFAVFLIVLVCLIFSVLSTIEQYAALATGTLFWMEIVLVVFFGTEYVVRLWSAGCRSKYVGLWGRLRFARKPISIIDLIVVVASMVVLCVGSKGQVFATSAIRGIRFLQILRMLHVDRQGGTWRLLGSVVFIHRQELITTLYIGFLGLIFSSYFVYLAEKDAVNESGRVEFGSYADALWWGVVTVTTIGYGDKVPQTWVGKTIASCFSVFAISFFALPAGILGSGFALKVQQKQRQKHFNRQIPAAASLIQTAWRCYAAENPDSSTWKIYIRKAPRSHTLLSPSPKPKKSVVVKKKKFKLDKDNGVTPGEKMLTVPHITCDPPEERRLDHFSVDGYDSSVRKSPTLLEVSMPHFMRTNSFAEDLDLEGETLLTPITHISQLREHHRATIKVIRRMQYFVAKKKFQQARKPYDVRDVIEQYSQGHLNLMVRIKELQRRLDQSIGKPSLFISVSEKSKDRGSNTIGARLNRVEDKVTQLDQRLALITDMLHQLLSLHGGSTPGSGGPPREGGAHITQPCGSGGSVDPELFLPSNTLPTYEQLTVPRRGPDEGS
nAChR(a4/b2), sequence (P43681 29-627 limits assumed): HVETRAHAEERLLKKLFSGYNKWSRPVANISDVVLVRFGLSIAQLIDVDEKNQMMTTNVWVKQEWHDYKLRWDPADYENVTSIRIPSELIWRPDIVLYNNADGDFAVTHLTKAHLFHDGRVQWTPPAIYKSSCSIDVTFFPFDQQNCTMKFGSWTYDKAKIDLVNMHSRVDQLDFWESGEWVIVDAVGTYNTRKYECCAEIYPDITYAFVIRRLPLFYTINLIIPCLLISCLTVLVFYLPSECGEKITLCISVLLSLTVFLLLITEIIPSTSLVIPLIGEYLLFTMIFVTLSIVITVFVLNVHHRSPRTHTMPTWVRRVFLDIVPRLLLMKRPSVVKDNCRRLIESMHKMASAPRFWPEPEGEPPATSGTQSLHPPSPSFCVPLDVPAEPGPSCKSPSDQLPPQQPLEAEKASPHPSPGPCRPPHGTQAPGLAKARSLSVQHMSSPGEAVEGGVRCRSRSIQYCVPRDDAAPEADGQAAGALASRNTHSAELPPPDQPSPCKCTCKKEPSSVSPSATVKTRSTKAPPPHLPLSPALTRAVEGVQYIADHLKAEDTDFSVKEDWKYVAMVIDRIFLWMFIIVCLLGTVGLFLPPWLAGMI
nAChR(a4/b2), sequence (P17787 26-502): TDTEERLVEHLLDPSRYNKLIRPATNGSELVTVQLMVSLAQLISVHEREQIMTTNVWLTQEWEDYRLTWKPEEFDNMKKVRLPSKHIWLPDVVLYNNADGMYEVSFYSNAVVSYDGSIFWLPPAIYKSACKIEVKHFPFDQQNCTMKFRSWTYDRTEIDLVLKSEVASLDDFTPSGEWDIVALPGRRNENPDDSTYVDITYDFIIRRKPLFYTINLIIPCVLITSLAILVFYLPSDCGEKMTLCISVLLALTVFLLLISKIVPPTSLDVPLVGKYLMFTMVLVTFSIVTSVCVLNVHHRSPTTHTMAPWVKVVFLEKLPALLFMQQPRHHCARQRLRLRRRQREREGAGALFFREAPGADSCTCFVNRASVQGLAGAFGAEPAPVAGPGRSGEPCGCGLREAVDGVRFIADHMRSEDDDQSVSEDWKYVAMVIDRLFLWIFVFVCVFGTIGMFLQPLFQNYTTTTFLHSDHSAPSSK

C[C@H]1C[C@@H](O)CN(c2ncc(Cl)c(Nc3ccc4c(c3)c3c(c(=O)n4C)OCC(F)(F)[C@H](C4CC4)N3)n2)C1 [12a CCT373566, (S)-10-((5-Chloro-2-((3R,5S)-3-hydroxy-5-methylpiperidin-1-yl)pyrimidin-4-yl)amino)-2-cyclopropyl-3,3-difluoro-7-methyl-1,2,3,4-tetrahydro-[1,4]oxazepino[2,3-c]quinolin-6(7H)-one]
Emax (KvLQT1/minK; read-out: Max Response): 3.79% | EC50 (KvLQT1/minK; read-out: RC50 (EC50)): > 10 µM | Emax (nAChR(a4/b2); read-out: Max Response): 0% | EC50 (nAChR(a4/b2); read-out: RC50 (EC50)): > 10 µM | Emax (GABAA): 4.81% | Emax (HTR3A; read-out: Max Response): 1.5% | EC50 (HTR3A; read-out: RC50 (EC50)): > 10 µM | Emax (NMDAR (1A/2B); read-out: Max Response): 1.31% | EC50 (NMDAR (1A/2B); read-out: RC50 (EC50)): > 10 µM | Emax (PDE3A; read-out: Max Response): 0.2% | IC50 (PDE3A; read-out: RC50 (IC50)): > 10 µM | Emax (MAOA; read-out: Max Response): 0% | IC50 (MAOA; read-out: RC50 (IC50)): > 10 µM | Emax (AChE; read-out: Max Response): 3.36% | IC50 (AChE; read-out: RC50 (IC50)): > 10 µM | Emax (PDE4D2; read-out: Max Response): 10.8% | IC50 (PDE4D2; read-out: RC50 (IC50)): > 10 µM | Emax (COX2; read-out: Max Response): 0% | IC50 (COX2; read-out: RC50 (IC50)): > 10 µM | Emax (COX1; read-out: Max Response): 33% | IC50 (COX1; read-out: RC50 (IC50)): > 10 µM | BCL6 TR-FRET pIC50 mean (human BCL6 BTB domain; mean of replicates): 8.6638 | IC50 (human BCL6 BTB domain; read-out: BCL6 TR-FRET IC50 individual replicates, single replicate values): 2.3 nM (3×) and 2.1 nM (3×) | HT GI50 (HT; 14-day proliferation assay): Very potent growth inhibition | GI50 (HT; Homo sapiens, HT, 336 h, read-out: HT GI50): 0.008 µM | microsomal CLint at 0.5 h, 1 µM [1]: 116 µL/min/mg | Emax (AR; read-out: Max Response): 0% | EC50 (AR; read-out: RC50 (EC50)): > 10 µM
